Patent publication US20250387481A1, “PRE-TREATED T CELLS FOR USE AS A MEDICAMENT” (STICHTING HET NEDERLANDS KANKER INSTITUUT-ANTONI VAN …, priority 2022, published 2025)

Legend:
MMTV-PyMT organoids = test: MTT measurement of MMTV-PyMT organoid survival upon increasing doses of docetaxel; type: cell-based; conditions: Mus musculus, docetaxel for 72 h
Experimental: Breast cancer organoids were derived from K14-Cre; Brca1fl/fl; p53fl/fl mouse mammary tumors (KB1P (Kester, L., et al. Clin Cancer Res, 2022.)) and from MMTV-PyMT (Duarte, A. A., et al. Nat Methods, 2018. 15(2): p. 134-140) mouse mammary tumors. Both lines were cultured in 50 μl drops of Cultrex PathClear Reduced Growth Factor Basement Membrane Extract Type 2 (BME, Amsbio, 3533-005-02). KB1P organoids were cultured in Advanced Dulbecco's modified Eagle's medium (adDMEM/F12; Thermo Fisher Scientific. Cat. No. 12634-010) containing Hepes (10 mmol/L; Thermo Fisher Scientific, Cat. No. 15630-056), Penicillin/streptomycin (10,000 U/ml; Thermo Fisher Scientific, Cat. No. 15140-122), B27 (2% Thermo Fisher Scientific, Cat. No. 17504-044), N-acetylcysteine (1.25 mM; Sigma-Aldrich, Cat. No. A9165) and fibroblast growth factor (FGF, 12 ng/ml; Invitrogen, Cat. No. PHG0261). MMTV-PyMT organoids were cultured in DMEM/F12 GlutaMAX (Gibco, Cat. No 10565018) supplemented with 10 mmol/L Hepes (Gibco, Cat. No 15630106), Penicillin/streptomycin (10,000 U/ml; Thermo Fisher Scientific, Cat. No. 15140-122), B27 (2% Thermo Fisher Scientific, Cat. No. 17504-044) and fibroblast growth factor (FGF, 12 ng/ml; Invitrogen, Cat. No. PHG0261). […]
Following co-culture, medium was removed, and cultures were washed in PBS to remove T cells. […] Plates were read with a 565 nm wavelength.

tumor-reactive T cells = test: Tumor recognition assay and viability of patient-derived tumor-reactive T cells; type: cell-based, human; conditions: 10 nmol/L docetaxel
Experimental: Tumor-reactive patient T cells were generated by co-culturing PBMCs and autologous tumor organoids as described previously (Dekkers, J. F., et al. Nat Protoc, 2021. 16(4): p. 1936-1965; Cattaneo, C. M., et al. Nat Protoc, 2020. 15(1): p. 15-39). In brief, following incubation with 200 ng/ml IFNγ for 24 hr, patient tumor organoids were dissociated into single cell suspensions using TripLE Express. Tumor organoid cells were mixed with patient PBMCs ([…]) and […] were seeded in each well of a U-bottom 96-well plate pre-coated with 5 μg/ml αCD28 antibody. Co-culture medium consisted of RPMI 1640 supplemented with 2 mmol/L Ultraglutamine I, penicillin/streptomycin, 10% human AB serum, 150 U/ml rh-IL-2 and 20 μg/ml αPD1 blocking antibody (Merus, The Netherlands). Medium, IL-2 and αPD1 were refreshed every 2-3 days. PBMCs were harvested and re-stimulated every 7 days by re-plating with fresh tumor organoid cells. After two weeks of co-culture, PBMCs were harvested and used for downstream analysis or cryopreserved for later use.
Tumor-reactive PBMC were thawed in pre-warmed T cells medium and incubated for 15 minutes with 25 U/mL Benzonase. After washing, cells were re-suspended at 2−3×10^6 cells/ml in T cell medium and cultured overnight at 37° C. T cell medium consisted of RPMI 1640 supplemented with 2 mmol/L Ultraglutamine I, penicillin/streptomycin, 10% human AB serum and 150 U/ml rh-IL-2. The day after, PBMC were incubated with (or without) 10 nmol/L docetaxel for 48 h.
For evaluation of tumor reactivity, […] were re-stimulated with autologous tumor organoids or autologous healthy organoids (isolated from Geltrex for 48 h and stimulated with 200 ng/ml IFNγ for 24 h, as described in (Dekkers, J. F., et al. Nat Protoc, 2021. 16(4): p. 1936-1965; Cattaneo, C. M., et al. Nat Protoc, 2020. 15(1): p. 15-39; Voorwerk, L., et al. Nat Med, 2019. 25(6): p. 920-928) at a 2:1 effector: target ratio and seeded in αCD28 coated plates in the presence of 20 μg/ml αPD1 and co-cultured for 24 hours. At the end of the 24 h, 50 μl of the assay supernatant were taken on the side and used for the quantification of the secreted IFNγ. To this purpose, the Human IFN-γ Flex Set (BD bioscience) was used in accordance with the manufacturer's instructions. For the evaluation of CD137 expression, at the end of the 24 h, cells were washed twice in FACS buffer and stained with the following antibodies: αCD3 PerCPCy5.5, αCD4 FITC, αCD8 BV421, αCD137 APC, and near IR viability dye for 30 minutes at 4° C. in the dark. […] Cells were then washed twice with FACS buffer and recorded with a Becton Dickinson Fortessa or LSRII flow cytometer.

## CC(=O)O[C@@]12CO[C@@H]1C[C@H](O)[C@@]1(C)C(=O)[C@H](O)C3=C(C)[C@@H](OC(=O)[C@H](O)[C@@H](NC(=O)OC(C)(C)C)c4ccccc4)C[C@@](O)([C@@H](OC(=O)c4ccccc4)[C@H]21)C3(C)C [docetaxel]
MMTV-PyMT organoids
  IC50: 130 nM
tumor-reactive T cells
  IFNγ secretion by T cells: did not enhance IFNγ secretion
  T cell viability: did not significantly alter T cell viability
  ability of T cells to recognize tumor organoids (CD137): did not increase
  expression of CD137, CD107 or PD1: did not increase
